These molecules were tested against Sodium-dependent noradrenaline transporter (Homo sapiens, UniProt P23975) (assay: Displacement of [3H]nisoxetine from human NET transfected in human HEK293 cells).
Sequence of Sodium-dependent noradrenaline transporter (P23975 whole entry): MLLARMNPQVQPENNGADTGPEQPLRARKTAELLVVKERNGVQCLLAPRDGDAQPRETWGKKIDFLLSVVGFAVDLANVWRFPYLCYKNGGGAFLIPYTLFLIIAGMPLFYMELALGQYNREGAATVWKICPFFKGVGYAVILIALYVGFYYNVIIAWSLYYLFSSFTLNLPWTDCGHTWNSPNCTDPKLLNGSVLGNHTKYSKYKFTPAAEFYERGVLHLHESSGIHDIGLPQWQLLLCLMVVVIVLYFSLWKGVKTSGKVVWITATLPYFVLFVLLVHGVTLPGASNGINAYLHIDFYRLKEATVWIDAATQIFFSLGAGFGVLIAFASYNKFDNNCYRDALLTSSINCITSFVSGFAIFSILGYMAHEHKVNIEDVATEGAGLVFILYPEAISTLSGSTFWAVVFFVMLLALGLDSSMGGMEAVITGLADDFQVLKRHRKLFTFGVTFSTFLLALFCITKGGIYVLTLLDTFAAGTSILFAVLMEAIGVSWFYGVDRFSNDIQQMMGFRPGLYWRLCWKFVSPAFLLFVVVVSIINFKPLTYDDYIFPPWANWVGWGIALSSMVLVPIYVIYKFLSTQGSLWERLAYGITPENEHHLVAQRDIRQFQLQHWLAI
Type: cell-based
`O=C(OCCF)C1C2CCC(CC1c1cccc(/C=C\I)c1)N2` (stereo not given) was tested, and the Ki was 110 nM.
In the case of `O=C(OCCF)C1C2CCC(CC1c1cccc(/C=C/I)c1)N2` (trans isomer), the Ki is reported as 1180 nM.
Molecule `O=C(OCCCF)C1C2CCC(CC1c1cccc(/C=C\I)c1)N2` (stereo not given) has a Ki of 67.5 nM.
With `O=C(OCCCF)C1C2CCC(CC1c1cccc(/C=C\Br)c1)N2` (stereo not given) the Ki was 30.2 nM.
Molecule `O=C(OCCF)C1C2CCC(CC1c1cccc(/C=C\Br)c1)N2` (stereo not given) has a Ki of 101 nM.

These molecules were tested on HEK293 (assay: Selectivity for human DAT over human SERT transfected in human HEK293 cells).
Type: cell-based
With `O=C(OCCF)C1C2CCC(CC1c1cccc(/C=C\I)c1)N2` (stereo not given) the Ratio Ki was 204.
For `O=C(OCCF)C1C2CCC(CC1c1cccc(/C=C/I)c1)N2` (trans isomer), the Ratio Ki was 18.
In the case of `O=C(OCCCF)C1C2CCC(CC1c1cccc(/C=C\I)c1)N2` (stereo not given), the Ratio Ki is reported as 691.
`O=C(OCCCF)C1C2CCC(CC1c1cccc(/C=C\Br)c1)N2` (stereo not given) was tested, and the Ratio Ki was 360.
Molecule `O=C(OCCF)C1C2CCC(CC1c1cccc(/C=C\Br)c1)N2` (stereo not given) has a Ratio Ki of 108.

What follows are molecules tested on HEK293 (assay: Selectivity for human NET over human SERT transfected in human HEK293 cells).
Type: cell-based
With `O=C(OCCF)C1C2CCC(CC1c1cccc(/C=C\I)c1)N2` (stereo not given) the Ratio Ki was 256.
With `O=C(OCCF)C1C2CCC(CC1c1cccc(/C=C/I)c1)N2` (trans isomer) the Ratio Ki was 78.
Work on `O=C(OCCCF)C1C2CCC(CC1c1cccc(/C=C\I)c1)N2` (stereo not given) yielded a Ratio Ki of 260.
`O=C(OCCCF)C1C2CCC(CC1c1cccc(/C=C\Br)c1)N2` (stereo not given) was tested, and the Ratio Ki was 92.
For `O=C(OCCF)C1C2CCC(CC1c1cccc(/C=C\Br)c1)N2` (stereo not given), the Ratio Ki was 307.

These molecules were tested against Sodium-dependent dopamine transporter (Homo sapiens, UniProt Q01959) (assay: Displacement of [3H]RTI-55 from human DAT transfected in human HEK293 cells).
Sequence of Sodium-dependent dopamine transporter (Q01959 whole entry): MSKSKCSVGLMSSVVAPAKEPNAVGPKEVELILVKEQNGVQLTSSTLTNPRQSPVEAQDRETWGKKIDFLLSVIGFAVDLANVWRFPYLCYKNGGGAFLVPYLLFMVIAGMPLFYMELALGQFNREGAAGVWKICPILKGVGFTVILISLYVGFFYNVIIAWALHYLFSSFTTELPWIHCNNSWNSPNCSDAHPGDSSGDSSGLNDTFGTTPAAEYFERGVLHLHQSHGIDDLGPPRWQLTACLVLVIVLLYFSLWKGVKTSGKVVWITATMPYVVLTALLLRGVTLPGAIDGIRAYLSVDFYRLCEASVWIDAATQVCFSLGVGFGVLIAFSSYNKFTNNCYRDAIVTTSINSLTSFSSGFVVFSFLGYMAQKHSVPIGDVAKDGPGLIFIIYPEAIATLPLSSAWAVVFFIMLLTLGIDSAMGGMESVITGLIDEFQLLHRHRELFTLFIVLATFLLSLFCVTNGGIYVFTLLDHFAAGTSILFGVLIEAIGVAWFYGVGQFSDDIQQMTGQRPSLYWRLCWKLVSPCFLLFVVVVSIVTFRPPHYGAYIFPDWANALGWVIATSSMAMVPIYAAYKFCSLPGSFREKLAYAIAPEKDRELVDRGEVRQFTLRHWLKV
Type: cell-based
`O=C(OCCF)C1C2CCC(CC1c1cccc(/C=C\I)c1)N2` (stereo not given) gave a Ki of 87.6 nM.
For `O=C(OCCF)C1C2CCC(CC1c1cccc(/C=C/I)c1)N2` (trans isomer), the Ki was 274 nM.
For `O=C(OCCCF)C1C2CCC(CC1c1cccc(/C=C\I)c1)N2` (stereo not given), the Ki was 180 nM.
With `O=C(OCCCF)C1C2CCC(CC1c1cccc(/C=C\Br)c1)N2` (stereo not given) the Ki was 119 nM.
Work on `O=C(OCCF)C1C2CCC(CC1c1cccc(/C=C\Br)c1)N2` (stereo not given) yielded a Ki of 35.5 nM.

Each molecule was assayed against Sodium-dependent serotonin transporter (Homo sapiens, UniProt P31645) (assay: Displacement of [3H](R,S)citalopram.HBr from human SERT transfected in human HEK293 cells).
Sequence of Sodium-dependent serotonin transporter (P31645 whole entry): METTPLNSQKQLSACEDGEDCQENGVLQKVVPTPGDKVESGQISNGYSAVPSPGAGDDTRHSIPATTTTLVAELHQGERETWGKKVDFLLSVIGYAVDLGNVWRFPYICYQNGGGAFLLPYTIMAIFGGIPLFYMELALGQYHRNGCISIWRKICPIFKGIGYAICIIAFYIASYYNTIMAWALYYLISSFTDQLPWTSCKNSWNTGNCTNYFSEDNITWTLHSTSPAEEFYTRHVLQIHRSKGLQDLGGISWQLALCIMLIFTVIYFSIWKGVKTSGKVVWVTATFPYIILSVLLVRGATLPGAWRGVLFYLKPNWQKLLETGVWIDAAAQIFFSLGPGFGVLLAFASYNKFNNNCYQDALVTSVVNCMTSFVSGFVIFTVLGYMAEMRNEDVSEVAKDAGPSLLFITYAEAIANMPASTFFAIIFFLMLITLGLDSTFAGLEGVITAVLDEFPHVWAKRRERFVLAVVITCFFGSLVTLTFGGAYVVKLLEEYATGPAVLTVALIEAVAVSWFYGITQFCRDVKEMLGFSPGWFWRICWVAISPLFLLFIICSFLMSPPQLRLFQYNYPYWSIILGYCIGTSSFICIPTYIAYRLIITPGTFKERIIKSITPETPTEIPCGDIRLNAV
Type: cell-based
For `O=C(OCCF)C1C2CCC(CC1c1cccc(/C=C\I)c1)N2` (stereo not given), the Ki was 0.43 nM.
With `O=C(OCCF)C1C2CCC(CC1c1cccc(/C=C/I)c1)N2` (trans isomer) the Ki was 15.2 nM.
In the case of `O=C(OCCCF)C1C2CCC(CC1c1cccc(/C=C\I)c1)N2` (stereo not given), the Ki is reported as 0.26 nM.
`O=C(OCCCF)C1C2CCC(CC1c1cccc(/C=C\Br)c1)N2` (stereo not given) was tested, and the Ki was 0.33 nM.
`O=C(OCCF)C1C2CCC(CC1c1cccc(/C=C\Br)c1)N2` (stereo not given) gave a Ki of 0.33 nM.

Reference: ChEMBL document CHEMBL1151757, “Synthesis, radiosynthesis, and biological evaluation of fluorine-18-labeled 2beta-carbo(fluoroalkoxy)-3beta-(3'-((Z)-2-haloethenyl)phenyl)nortropanes: candidate radioligands for in vivo imaging of the serotonin transporter with positron emission tomography” (J Med Chem, 2008)
